Measurements taken from patent US8222202B2 (priority 2006, dated 2012).
Read-outs that look alike come from different tables or passages of the source. Positions of bridges follow the written chain, without caps; N, C: chain ends. Non-standard residues stand in square brackets, D forms with d. Residues, ends and D or L forms follow the SMILES beside them. *: point of attachment. Ala(4-thiazolyl) = N[C@@H](Cc1cscn1)C(=O)O; Dab(iPr) = CC(C)NCC[C@H](N)C(=O)O; 2Pal = N[C@@H](Cc1ccccn1)C(=O)O; 3Pal = N[C@@H](Cc1cccnc1)C(=O)O; 4Pal = N[C@@H](Cc1ccncc1)C(=O)O; 2Thi = N[C@@H](Cc1cccs1)C(=O)O; Aad = N[C@@H](CCCC(=O)O)C(=O)O; NHCH(CH2OH)2 = OCC(CO)N*; Orn = NCCC[C@H](N)C(=O)O; Dab = NCC[C@H](N)C(=O)O; NHCH2CH2OH = OCCN*; NHiBu = CC(C)CN*; NHOH = ON*

Columns and labels:
[1] = biological target: T1, hV1a receptor (Homo sapiens, UniProt P37288); assay: hV1a receptor transcriptional reporter (luciferase) agonist assay; format: cell-based
T1 construct: expressed in transfected cells; host or cells: HEK-293
T1 sequence (P37288 whole entry): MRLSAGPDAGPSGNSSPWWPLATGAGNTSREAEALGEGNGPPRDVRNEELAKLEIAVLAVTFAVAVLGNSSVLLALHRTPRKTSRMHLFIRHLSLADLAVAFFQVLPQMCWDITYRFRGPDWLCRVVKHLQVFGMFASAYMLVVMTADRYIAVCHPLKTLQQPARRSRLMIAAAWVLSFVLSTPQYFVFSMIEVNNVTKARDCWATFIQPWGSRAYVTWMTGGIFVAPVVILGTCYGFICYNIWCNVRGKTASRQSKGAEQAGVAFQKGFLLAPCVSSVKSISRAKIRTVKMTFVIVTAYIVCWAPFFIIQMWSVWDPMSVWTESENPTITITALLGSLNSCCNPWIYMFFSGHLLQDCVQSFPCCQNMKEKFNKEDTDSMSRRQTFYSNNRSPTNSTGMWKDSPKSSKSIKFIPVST
Description: (§1) Agonist activity of compounds on the hV1a receptor was determined in a transcriptional reporter assay by transiently transfecting a hV1a receptor expression DNA into HEK-293 cells in concert with a reporter DNA containing intracellular calcium responsive promoter elements regulating expression of firefly luciferase. See Boss, V., Talpade, D. J., Murphy, T. J. J. Biol. Chem. 1996, May 3; 271(18), 10429-10432 for further guidance on this assay. […] To determine selectivity, compounds were tested in luciferase-based transcriptional reporter assays expressing the human oxytocin (hOT) receptor. Assays for other receptors (hV2, hV1b, rat V1a and rat V2) were also conducted.
(§2) The EC50 value given is the geometric mean expressed in nanomol/L (nM). Selectivity values are given as EC50 ratios.

[2] = biological target: T2, human oxytocin (hOT) receptor (Homo sapiens, UniProt P30559); assay: luciferase-based transcriptional reporter assay, selectivity hOT versus hV1a; format: cell-based
T2 construct: expressed in transfected cells
T2 sequence (P30559 1-389): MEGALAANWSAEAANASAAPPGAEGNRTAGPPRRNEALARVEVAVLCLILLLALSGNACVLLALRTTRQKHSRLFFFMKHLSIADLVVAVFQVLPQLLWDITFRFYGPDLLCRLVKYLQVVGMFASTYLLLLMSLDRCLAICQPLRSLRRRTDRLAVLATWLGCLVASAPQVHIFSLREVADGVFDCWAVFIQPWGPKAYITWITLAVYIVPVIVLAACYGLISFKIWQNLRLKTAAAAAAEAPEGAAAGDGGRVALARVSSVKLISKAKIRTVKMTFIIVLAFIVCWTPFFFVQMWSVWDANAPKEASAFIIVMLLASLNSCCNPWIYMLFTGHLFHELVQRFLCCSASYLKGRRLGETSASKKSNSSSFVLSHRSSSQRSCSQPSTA
Description: as §1, §2

[3] = HEK-293 cells transiently transfected with hV1a receptor, 5 hours exposure, geometric mean, read-out: EC50 hV1a receptor
[4] = class symbol, agonist efficacy at hOT receptor compared to AVP

EC50 [1, 3] | SMILES | EC50 [1] | selectivity hOT/hV1a [2] | selectivity hOT/hV1a ([2]; EC50 ratio) | selectivity hOT/hV1a [2, 4]
29.9 nM | CC[C@H](C)[C@@H]1NC(=O)[C@H](Cc2cccnc2)NC(=O)[C@@H](N)CSSC[C@@H](C(=O)N2CCC[C@H]2C(=O)N[C@@H](CCN)C(=O)NCC(N)=O)NC(=O)[C@H](CC(N)=O)NC(=O)[C@H](CCC(N)=O)NC1=O [Compound 18] (H-C[3Pal]IQNCP[Dab]G-NH2; disulfide 1-6; N-terminus and C-terminus assumed) |  |  |  | + (selective hV1a receptor agonist; EC50 hOT/hV1a ratio not determined due to very low agonist efficacy (<30% compared to AVP) at the hOT receptor)
39.3 nM | CCNC(=O)CC[C@@H]1NC(=O)[C@H]([C@@H](C)CC)NC(=O)[C@H](Cc2ccccc2)NC(=O)[C@@H](N)CSSC[C@@H](C(=O)N2CCC[C@H]2C(=O)N[C@@H](CCCN)C(=O)NCC(N)=O)NC(=O)[C@H](CC(N)=O)NC1=O [Compound 20] (H-CFIE(NHEt)NCP[Orn]G-NH2; disulfide 1-6; N-terminus and C-terminus assumed) |  |  |  | + (selective hV1a receptor agonist; EC50 hOT/hV1a ratio not determined due to very low agonist efficacy (<30% compared to AVP) at the hOT receptor)
20.7 nM | CC[C@H](C)[C@@H]1NC(=O)[C@H](Cc2ccccc2)NC(=O)[C@@H](N)CSSC[C@@H](C(=O)N2CCC[C@H]2C(=O)N[C@@H](CCCN)C(=O)NCC(N)=O)NC(=O)[C@H](CC(N)=O)NC(=O)[C@H](CCC(=O)NCC(C)C)NC1=O [Compound 21] (H-CFIE(NHiBu)NCP[Orn]G-NH2; disulfide 1-6) |  |  |  | + (selective hV1a receptor agonist; EC50 hOT/hV1a ratio not determined due to very low agonist efficacy (<30% compared to AVP) at the hOT receptor)
18.1 nM | CC[C@H](C)[C@@H]1NC(=O)[C@H](Cc2ccccc2)NC(=O)[C@@H](N)CSSC[C@@H](C(=O)N2CCC[C@H]2C(=O)N[C@@H](CCNC(C)C)C(=O)NCC(N)=O)NC(=O)[C@H](CC(N)=O)NC(=O)[C@H](CCCC(N)=O)NC1=O [Compound 22] (H-CFI[Aad](NH2)NCP[Dab(iPr)]G-NH2; disulfide 1-6; N-terminus and C-terminus assumed) |  |  |  | + (selective hV1a receptor agonist; EC50 hOT/hV1a ratio not determined due to very low agonist efficacy (<30% compared to AVP) at the hOT receptor)
7.97 nM | CC[C@H](C)[C@@H]1NC(=O)[C@H](Cc2ccccc2)NC(=O)[C@@H](N)CSSC[C@@H](C(=O)N2CCC[C@H]2C(=O)N[C@@H](CCCN)C(=O)NCC(N)=O)NC(=O)[C@H](CC(N)=O)NC(=O)[C@H](CC(=O)NCCO)NC1=O [Compound 23] (H-CFID(NHCH2CH2OH)NCP[Orn]G-NH2; disulfide 1-6) |  |  |  | + (selective hV1a receptor agonist; EC50 hOT/hV1a ratio not determined due to very low agonist efficacy (<30% compared to AVP) at the hOT receptor)
4.09 nM | CC[C@H](C)[C@@H]1NC(=O)[C@H](Cc2ccccc2)NC(=O)[C@@H](N)CSSC[C@@H](C(=O)N2CCC[C@H]2C(=O)N[C@@H](CCCN)C(=O)NCC(N)=O)NC(=O)[C@H](CC(N)=O)NC(=O)[C@H](CC(=O)NO)NC1=O [Compound 24] (H-CFID(NHOH)NCP[Orn]G-NH2; disulfide 1-6; N-terminus and C-terminus assumed) |  |  |  | + (selective hV1a receptor agonist; EC50 hOT/hV1a ratio not determined due to very low agonist efficacy (<30% compared to AVP) at the hOT receptor)
16.2 nM | CC[C@H](C)[C@@H]1NC(=O)[C@H](Cc2ccccc2)NC(=O)[C@@H](N)CSSC[C@@H](C(=O)N2CCC[C@H]2C(=O)N[C@@H](CCCN)C(=O)NCC(N)=O)NC(=O)[C@H](CC(N)=O)NC(=O)[C@H](CC(=O)NC(CO)CO)NC1=O [Compound 27] (H-CFID(NHCH(CH2OH)2)NCP[Orn]G-NH2; disulfide 1-6; N-terminus and C-terminus assumed) |  |  |  | + (selective hV1a receptor agonist; EC50 hOT/hV1a ratio not determined due to very low agonist efficacy (<30% compared to AVP) at the hOT receptor)

Further lines, the compound ahead of its results:

SMILES | EC50 [1, 3] | EC50 [1] | selectivity hOT/hV1a [2] | selectivity hOT/hV1a ([2]; EC50 ratio) | selectivity hOT/hV1a [2, 4]
CC[C@H](C)[C@@H]1NC(=O)[C@H](Cc2ccccc2)NC(=O)[C@@H](N)CSSC[C@@H](C(=O)N2CCC[C@H]2C(=O)N[C@@H](CCCN)C(=O)NCC(N)=O)NC(=O)[C@H](CC(N)=O)NC(=O)[C@H](CC(=O)N(C)C)NC1=O [Compound 7] (H-CFID(NMe2)NCP[Orn]G-NH2; disulfide 1-6) |  | 2.84 nM | + (key: +: selective hV1a receptor agonist; EC50 hOT/hV1a ratio not determined due to very low agonist efficacy (<30% compared to AVP) at the hOT receptor) |  | 
CC[C@H](C)[C@@H]1NC(=O)[C@H](Cc2ccccc2)NC(=O)[C@@H](N)CSSC[C@@H](C(=O)N2CCC[C@H]2C(=O)N[C@@H](CCN)C(=O)NCC(N)=O)NC(=O)[C@H](CC(N)=O)NC(=O)[C@H](CCC(N)=O)NC1=O [Compound 8] (H-CFIQNCP[Dab]G-NH2; disulfide 1-6; N-terminus and C-terminus assumed) | 0.5 nM |  |  | 11 | 
CC[C@H](C)[C@@H]1NC(=O)[C@H](Cc2ccncc2)NC(=O)[C@@H](N)CSSC[C@@H](C(=O)N2CCC[C@H]2C(=O)N[C@@H](CCN)C(=O)NCC(N)=O)NC(=O)[C@H](CC(N)=O)NC(=O)[C@H](CCC(N)=O)NC1=O [Compound 12] (H-C[4Pal]IQNCP[Dab]G-NH2; disulfide 1-6) |  | 25 nM | + (key: +: selective hV1a receptor agonist; EC50 hOT/hV1a ratio not determined due to very low agonist efficacy (<30% compared to AVP) at the hOT receptor) |  | 
CC[C@H](C)[C@@H]1NC(=O)[C@H](Cc2cscn2)NC(=O)[C@@H](N)CSSC[C@@H](C(=O)N2CCC[C@H]2C(=O)N[C@@H](CCN)C(=O)NCC(N)=O)NC(=O)[C@H](CC(N)=O)NC(=O)[C@H](CCC(N)=O)NC1=O [Compound 13] (H-C[Ala(4-thiazolyl)]IQNCP[Dab]G-NH2; disulfide 1-6; N-terminus and C-terminus assumed) | 18.8 nM |  |  |  | + (selective hV1a receptor agonist; EC50 hOT/hV1a ratio not determined due to very low agonist efficacy (<30% compared to AVP) at the hOT receptor)
CC[C@H](C)[C@@H]1NC(=O)[C@H](Cc2cccs2)NC(=O)[C@@H](N)CSSC[C@@H](C(=O)N2CCC[C@H]2C(=O)N[C@@H](CCN)C(=O)NCC(N)=O)NC(=O)[C@H](CC(N)=O)NC(=O)[C@H](CCC(N)=O)NC1=O [Compound 14] (H-C[2Thi]IQNCP[Dab]G-NH2; disulfide 1-6) | 0.54 nM |  |  | 75 | 
CC[C@H](C)[C@@H]1NC(=O)[C@H](Cc2ccccc2)NC(=O)[C@@H](N)CSSC[C@@H](C(=O)N2CCC[C@H]2C(=O)N[C@@H](CCCN)C(=O)NCC(N)=O)NC(=O)[C@H](CC(N)=O)NC(=O)[C@H](CCC(=O)NO)NC1=O [Compound 16] (H-CFIE(NHOH)NCP[Orn]G-NH2; disulfide 1-6; N-terminus and C-terminus assumed) | 11.9 nM |  |  |  | + (selective hV1a receptor agonist; EC50 hOT/hV1a ratio not determined due to very low agonist efficacy (<30% compared to AVP) at the hOT receptor)
CC[C@H](C)[C@@H]1NC(=O)[C@H](Cc2ccccn2)NC(=O)[C@@H](N)CSSC[C@@H](C(=O)N2CCC[C@H]2C(=O)N[C@@H](CCN)C(=O)NCC(N)=O)NC(=O)[C@H](CC(N)=O)NC(=O)[C@H](CCC(N)=O)NC1=O [Compound 17] (H-C[2Pal]IQNCP[Dab]G-NH2; disulfide 1-6) |  | 30.3 nM | + (key: +: selective hV1a receptor agonist; EC50 hOT/hV1a ratio not determined due to very low agonist efficacy (<30% compared to AVP) at the hOT receptor) |  | 
